Tests used:
Shigella dysenteriae = experiment: Filtering paper agar diffusion bacteriostatic test against Shigella dysenteriae; format: cell-based; settings: 50 μL on 0.6 cm filter paper, extract 1 mg/10 μL, positive control 1 mg/mL, MH plate, 37° C., 16-20 h
Klebsiella pneumoniae = experiment: Filtering paper agar diffusion bacteriostatic test against Klebsiella pneumoniae; settings: 50 μL on 0.6 cm filter paper, extract 1 mg/10 μL, positive control 1 mg/mL, MH plate, 37° C., 16-20 h

NC[C@H]1O[C@H](O[C@H]2[C@H](O)[C@@H](O[C@H]3O[C@H](CO)[C@@H](O)[C@H](N)[C@H]3O)[C@H](N)C[C@@H]2N)[C@H](O)[C@@H](O)[C@@H]1O [Kanamycin, kanamycin]
size of bacteriostatic ring, mean (Shigella dysenteriae; mean of 3 measurements): 23.7 mm
size of bacteriostatic ring (Shigella dysenteriae; the first time): 24 mm
size of bacteriostatic ring (Shigella dysenteriae; the second time): 24 mm
size of bacteriostatic ring (Shigella dysenteriae; the third time): 23 mm
size of bacteriostatic ring, mean (Klebsiella pneumoniae; mean of 3 measurements): 19.7 mm
size of bacteriostatic ring (Klebsiella pneumoniae; the first time): 20 mm
size of bacteriostatic ring (Klebsiella pneumoniae; the second time): 18 mm
size of bacteriostatic ring (Klebsiella pneumoniae; the third time): 21 mm

From patent publication US20220339209A1, “ISOLATION, IDENTIFICATION AND APPLICATION OF STREPTOCOCCUS SP. 121” (priority 2021, published 2022)
